For data set [1], the target named is PARP1 (Homo sapiens, UniProt P09874). Kind of data set: PARP1 enzymatic inhibition assay (ELISA, chemiluminescence). The class given is biochemical. Particulars: for inhibition at 0.5 µM: duplicate, average, read-out: PARP1 Inhibition Rate; for IC50: mean ± SD of at least two independent experiments in duplicate.
Data set [2] addresses NAMPT (Homo sapiens, UniProt P43490). Kind of data set: NAMPT enzymatic inhibition assay (fluorescence, coupled NMNAT/alcohol dehydrogenase). The class given is biochemical. The note with it: for inhibition at 0.1 µM / NAMPT Inhibition Rate: duplicate, average, 0.1 μM; for inhibition at 0.1 µM: read-out: NAMPT Inhibition Rate; for IC50: mean ± SD of at least two independent experiments in duplicate.

Data set [3] deals with MCF-7. Kind of data set: MTT cell viability assay, MCF-7. The class given is cell-based. The note with it: Homo sapiens, MCF7, 72 h, mean ± SEM, read-out: Cytotoxicity IC50 MCF-7. As for the experimental part:
(§1) MDA-MB-468, MDA-MB-231, MCF-7, and MCF-10A cell lines were obtained from the National Collection of Authenticated Cell Culture, China. The cells were cultured in DMEM medium supplemented with 10% FBS and 1% penicillin/streptomycin, and maintained at 37 °C in a humidified atmosphere with 5% CO2.
(§2) Cell viability was assessed using the MTT assay. Cells were seeded at a density of 3 × 10^3 cells per well in a 96-well plate and treated with various concentrations (0.05, 0.2, 0.8, 3.2, 6.4, 12.8 µM) of the compounds for 72 h. After incubation, 100 µL of MTT solution (0.5 mg/mL) was added to each well and further incubated for 4 h. The resulting formazan crystals were dissolved in 150 µL of DMSO, and the absorbance was measured at 570 nm using a microplate reader.

Data set [4] deals with MCF-10A. Kind of data set: MTT cell viability assay, MCF-10A normal breast epithelial cells. The format is cell-based, human. The note with it: Homo sapiens, 72 h; 3.0 μM; MCF-10A; mean ± SEM; read-out: Cell Survival Rate. As for the experimental part: as §1, §2
A general note: Tetrazolium dyes change colour on reduction, which living cells bring about.

Data set [5] concerns MDA-MB-231. Kind of data set: MTT cell viability assay, MDA-MB-231. The class given is cell-based. The note with it: Homo sapiens, 72 h, mean ± SEM, read-out: Cytotoxicity IC50 MDA-MB-231. As for the experimental part:
as §1, §2

The test system of data set [6] is MDA-MB-468. Kind of data set: MTT cell viability assay, MDA-MB-468. Particulars: Homo sapiens, 72 h, mean ± SEM, read-out: Cytotoxicity IC50 MDA-MB-468. The format is cell-based. As for the experimental part:
as §1, §2

Chain of PARP1 (P09874 whole entry): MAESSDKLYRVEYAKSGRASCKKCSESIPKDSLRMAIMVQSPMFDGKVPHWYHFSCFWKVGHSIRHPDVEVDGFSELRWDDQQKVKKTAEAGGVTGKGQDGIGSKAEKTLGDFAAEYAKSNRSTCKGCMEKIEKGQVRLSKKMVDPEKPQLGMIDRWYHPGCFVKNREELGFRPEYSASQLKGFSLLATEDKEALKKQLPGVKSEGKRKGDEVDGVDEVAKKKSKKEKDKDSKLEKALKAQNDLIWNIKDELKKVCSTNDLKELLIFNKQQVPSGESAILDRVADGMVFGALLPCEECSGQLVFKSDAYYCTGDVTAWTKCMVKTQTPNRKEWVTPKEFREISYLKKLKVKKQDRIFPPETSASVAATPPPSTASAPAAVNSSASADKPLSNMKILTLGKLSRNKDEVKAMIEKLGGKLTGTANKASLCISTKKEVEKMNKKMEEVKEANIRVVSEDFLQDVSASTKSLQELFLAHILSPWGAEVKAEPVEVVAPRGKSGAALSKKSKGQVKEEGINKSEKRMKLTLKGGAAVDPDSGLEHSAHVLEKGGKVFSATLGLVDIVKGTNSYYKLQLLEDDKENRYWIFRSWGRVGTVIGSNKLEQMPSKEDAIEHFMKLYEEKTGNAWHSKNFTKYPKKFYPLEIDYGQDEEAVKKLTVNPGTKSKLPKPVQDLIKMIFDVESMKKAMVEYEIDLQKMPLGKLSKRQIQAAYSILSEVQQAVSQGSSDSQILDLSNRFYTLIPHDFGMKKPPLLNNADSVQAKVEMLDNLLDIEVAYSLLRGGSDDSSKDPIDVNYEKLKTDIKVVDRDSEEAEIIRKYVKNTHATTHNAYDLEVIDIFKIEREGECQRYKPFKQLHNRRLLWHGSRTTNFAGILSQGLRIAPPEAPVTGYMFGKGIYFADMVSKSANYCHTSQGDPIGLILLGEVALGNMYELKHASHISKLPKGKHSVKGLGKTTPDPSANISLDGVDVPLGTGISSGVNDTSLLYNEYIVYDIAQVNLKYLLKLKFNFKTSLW
Chain of NAMPT (P43490 whole entry): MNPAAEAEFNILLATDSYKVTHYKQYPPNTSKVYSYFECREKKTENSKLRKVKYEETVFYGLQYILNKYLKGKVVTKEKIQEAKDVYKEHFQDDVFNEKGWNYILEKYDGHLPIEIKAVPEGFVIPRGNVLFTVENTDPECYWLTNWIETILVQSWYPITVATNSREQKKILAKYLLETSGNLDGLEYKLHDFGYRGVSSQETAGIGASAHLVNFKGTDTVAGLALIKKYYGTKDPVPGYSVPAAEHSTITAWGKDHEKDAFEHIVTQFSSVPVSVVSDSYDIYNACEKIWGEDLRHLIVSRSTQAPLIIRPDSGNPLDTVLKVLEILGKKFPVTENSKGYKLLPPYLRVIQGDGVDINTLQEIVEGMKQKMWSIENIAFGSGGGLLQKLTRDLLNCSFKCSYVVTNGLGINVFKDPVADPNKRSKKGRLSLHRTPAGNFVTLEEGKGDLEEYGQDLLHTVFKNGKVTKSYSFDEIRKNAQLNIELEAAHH

The term inhibition denotes the relative decrease from the control value, in per cent. Usually melting point stands for the temperature of the solid-liquid transition. As a reminder, the IC50 is the point on the concentration scale where inhibition reaches its midpoint. `NC(=O)c1cc(F)ccc1OCc1ccc(F)c(C(=O)N2CCN(S(=O)(=O)c3ccc(NC(=O)NCc4cccnc4)cc3)CC2)c1` [DDY07, 5-Fluoro-2-((4-fluoro-3-(4-((4-(3-(pyridin-3-ylmethyl)ureido)phenyl)sulfonyl)piperazine-1-carbonyl)benzyl)oxy)benzamide] returned a melting point of 122 to 123 °C. Further, the inhibition at 0.5 µM in data set [1] was 92%. Also, the inhibition at 0.1 µM in data set [2] amounted to 84%. The IC50 in data set [3] came to 13.5 ± 0.16 µM. The viability at 3 µM in data set [4] was found to be 70.73 ± 0.07%. Moreover, the IC50 in data set [5] was found to be 8.1 ± 0.71 µM. The IC50 in data set [6] came out at 7.43 ± 0.23 µM.
`O=C(c1cc(Cc2n[nH]c(=O)c3ccccc23)ccc1F)N1CCN(S(=O)(=O)c2ccc(NC(=S)NCc3cccnc3)cc2)CC1` [DDY01, 1-(4-((4-(2-Fluoro-5-((4-oxo-3,4-dihydrophthalazin-1-yl)methyl)benzoyl)piperazin-1-yl)sulfonyl)phenyl)-3-(pyridin-3-ylmethyl)thiourea]: the melting point was 189 to 190 °C. This molecule also gave a 50% inhibitory concentration (IC50) in data set [1] of 0.009 ± 0.002 µM. Besides, the “fold decrease in inhibitory capacity against PARP1 compared to Olaparib” value in data set [1] (ratio of IC50 values) turned out to be 4.5 fold. Also, the inhibition at 0.1 µM in data set [2] was 83%. Moreover, the IC50 in data set [3] came out at 8.48 ± 0.18 µM. The viability at 3 µM in data set [4] came out at 67.1 ± 1.73%. In addition, in data set [5], the IC50 was found to be 6.17 ± 0.27 µM. For the same molecule, in data set [6], the IC50 turned out to be 5.09 ± 0.09 µM.
Consider `NC(=O)c1cc(F)ccc1OCc1cccc(C(=O)N2CCN(S(=O)(=O)c3ccc(NC(=O)NCc4cccnc4)cc3)CC2)c1` [DDY09, 5-Fluoro-2-((3-(4-((4-(3-(pyridin-3-ylmethyl)ureido)phenyl)sulfonyl)piperazine-1-carbonyl)benzyl)oxy)benzamide], for which the melting point is 147 to 148 °C. The inhibition at 0.5 µM in data set [1] is 78%. Also, in data set [2], the inhibition at 0.1 µM stood at 86%. For the same molecule, the IC50 in data set [3] came to 11 ± 0.82 µM. Also, the viability at 3 µM in data set [4] came out at 66.9 ± 2.45%. For the same molecule, in data set [5], the IC50 was found to be 8.7 ± 0.24 µM. The half-inhibitory concentration (IC50) in data set [6] amounted to 6.98 ± 0.57 µM.
On to `NC(=O)c1ccccc1OCc1ccc(F)c(C(=O)N2CCN(S(=O)(=O)Cc3ccc(NC(=O)NCc4cccnc4)cc3)CC2)c1` [DDY06, 2-((4-Fluoro-3-(4-((4-(3-(pyridin-3-ylmethyl)ureido)benzyl)sulfonyl)piperazine-1-carbonyl)benzyl)oxy)benzamide], for which the inhibition at 0.5 µM in data set [1] worked out at 89%. Besides, the inhibition at 0.1 µM in data set [2] is 48%. Moreover, the results for the 50% inhibitory concentration (IC50) in data set [3], in data set [5] and in data set [6] were 7.95 ± 0.34 µM, 15.4 ± 2.15 µM and 17.2 ± 1.57 µM, respectively. The viability at 3 µM in data set [4] was 69.5 ± 2.56%.
Consider `NC(=O)c1ccccc1OCc1ccc(F)c(C(=O)N2CCN(S(=O)(=O)c3ccc(NC(=S)NCc4cccnc4)cc3)CC2)c1` [DDY04, 2-((4-Fluoro-3-(4-((4-(3-(pyridin-3-ylmethyl)thioureido)phenyl)sulfonyl)piperazine-1-carbonyl)benzyl)oxy)benzamide], for which the melting point fell in the range of 125 to 126 °C. Also, in data set [1], the inhibition at 0.5 µM amounted to 70%. Also, in data set [2], the “NAMPT Inhibition Rate” value is on record as 84% and the inhibition at 0.1 µM was 84 to 86%. Besides, in data set [3], the IC50 was determined as 13.4 ± 2.41 µM. Further, in data set [4], the viability at 3 µM is 98.4 ± 1.74%. For the same molecule, the IC50 in data set [5] is 13.5 ± 0.66 µM. For the same molecule, the IC50 in data set [6] worked out at 14.1 ± 0.3 µM.
`NC(=O)c1ccccc1OCc1ccc(F)c(C(=O)N2CCN(S(=O)(=O)c3ccc(NC(=O)NCc4cccnc4)cc3)CC2)c1` [DDY05, 2-((4-Fluoro-3-(4-((4-(3-(pyridin-3-ylmethyl)ureido)phenyl)sulfonyl)piperazine-1-carbonyl)benzyl)oxy)benzamide] displayed a melting point of 119 to 120 °C. In data set [2], the “NAMPT Inhibition Rate” value turned out to be 86% and the inhibition at 0.1 µM was 84 to 86%. The IC50 in data set [3] is over 20 µM. In addition, the viability at 3 µM in data set [4] came out at 88.7 ± 2.41%. Further, the IC50 in data set [5] was 10.2 ± 0.29 µM. The IC50 in data set [6] came to 8.02 ± 0.74 µM.
Molecule `NC(=O)c1ccccc1OCc1cccc(C(=O)N2CCN(S(=O)(=O)c3ccc(NC(=O)NCc4cccnc4)cc3)CC2)c1` [DDY08, 2-((3-(4-((4-(3-(Pyridin-3-ylmethyl)ureido)phenyl)sulfonyl)piperazine-1-carbonyl)benzyl)oxy)benzamide] yielded a melting point of 202 to 203 °C. The inhibition at 0.5 µM in data set [1] stood at 69%. In addition, the inhibition at 0.1 µM in data set [2] stood at 80%. The IC50 in data set [3] was 9.18 ± 0.44 µM. The viability at 3 µM in data set [4] worked out at 72.6 ± 3.46%. Moreover, in data set [5], the half-maximal inhibitory concentration (IC50) came out at 11.1 ± 0.19 µM. Besides, the IC50 in data set [6] is 12.9 ± 1.69 µM.
`NC(=O)c1cccc2[nH]c(C(=O)N3CCN(S(=O)(=O)c4ccc(NC(=S)NCc5cccnc5)cc4)CC3)nc12` [DDY10, 2-(4-((4-(3-(Pyridin-3-ylmethyl)thioureido)phenyl)sulfonyl)piperazine-1-carbonyl)-1H-benzo[d]imidazole-4-carboxamide]: the melting point was over 250 °C. The inhibition at 0.5 µM in data set [1] amounted to 55%. The inhibition at 0.1 µM in data set [2] is 7%. Further, the 50% inhibitory concentration (IC50) in data set [3] is 8.83 ± 0.31 µM. Besides, in data set [4], the viability at 3 µM was determined as 96.9 ± 1.71%. In addition, in data set [5], the IC50 was 4.45 ± 0.29 µM. The 50% inhibitory concentration (IC50) in data set [6] was 6.74 ± 0.16 µM.
On to `O=C(NCc1cccnc1)Nc1ccc(S(=O)(=O)N2CCN(C(=O)CCc3nc4ccccc4c(=O)[nH]3)CC2)cc1` [DDY03, 1-(4-((4-(3-(4-Oxo-3,4-dihydroquinazolin-2-yl)propanoyl)piperazin-1-yl)sulfonyl)phenyl)-3-(pyridin-3-ylmethyl)urea], for which the melting point is 120 to 121 °C. In addition, the IC50 in data set [1] was 0.025 ± 0.007 µM. Further, the midpoint of inhibition in data set [2], the IC50, lay at 0.055 ± 0.019 µM. The IC50 in data set [3] was found to be 11.2 ± 0.79 µM. Moreover, the viability at 3 µM in data set [4] came to 80.7 ± 1.5%. In addition, the IC50 in data set [5] is 10.9 ± 0.68 µM. In addition, in data set [6], the IC50 is 8.17 ± 0.31 µM.
`NC(=O)c1cccc2[nH]c(C(=O)N3CCN(S(=O)(=O)c4ccc(NC(=O)NCc5cccnc5)cc4)CC3)nc12` [DDY11, 2-(4-((4-(3-(Pyridin-3-ylmethyl)ureido)phenyl)sulfonyl)piperazine-1-carbonyl)-1H-benzo[d]imidazole-4-carboxamide] displayed a melting point of over 250 °C. The IC50 in data set [1] worked out at 0.014 ± 0.003 µM. In data set [2], the IC50 came out at 0.034 ± 0.009 µM. For the same molecule, the IC50 in data set [3] stood at 7.39 ± 0.34 µM. Besides, the viability at 3 µM in data set [4] is 82.15 ± 0.21%. The 50% inhibitory concentration (IC50) in data set [5] came out at 13.8 ± 0.33 µM. The IC50 in data set [6] turned out to be 12.2 ± 1.39 µM.

These data come from PMC11206297, “Targeting NAD Metabolism: Rational Design, Synthesis and In Vitro Evaluation of NAMPT/PARP1 Dual-Target Inhibitors as Anti-Breast Cancer Agents” (Molecules, 2024).
